Assay results reported in patent publication US20070128217A1 (priority 2003, published 2007).

Assays:
[1] = test system: rabbit serum obtained by immunizing a rabbit with the SARS-CoV strain Frankfurt 1; type: binding; design: Binding of a rabbit serum to linear peptides / Binding of a rabbit serum to looped peptides / Rabbit serum linear peptides / Rabbit serum looped peptides / Binding of a rabbit serum to linear peptides of protein N of SARS-CoV Urbani (Rabbit serum linear peptides) / Binding of a rabbit serum to looped/cyclic peptides of protein N of SARS-CoV Urbani (Rabbit serum looped peptides): unit not given here
[2] = test system: control sera (pooled serum of ten healthy LUMC hospital workers; commercial negative donor pooled serum from the Dutch bloodbank); type: binding, human
[3] = test system: recombinant human anti-SARS-CoV antibody 03-018; type: binding; design: Binding of antibody 03-018 to linear peptides of the N protein of SARS-CoV Urbani / Binding of antibody 03-018 to looped/cyclic peptides of the N protein of SARS-CoV Urbani: unit not given here
[4] = test system: antibodies in sera from SARS patients (sera 1a, 1b, 2, 6, 37, 62, London, SARS-yellow, SARS-green); type: binding, human; design: Binding of serum 6 to linear peptides of protein X1 of SARS-CoV Urbani / Binding of serum 37 to linear peptides of protein X1 of SARS-CoV Urbani / Binding of serum 6 to looped/cyclic peptide (PEPSCAN-ELISA) / Binding of serum 37 to looped/cyclic peptide (PEPSCAN-ELISA) / Binding of serum 37 to looped/cyclic peptides of protein X1 of SARS-CoV Urbani / Binding of serum 6 to linear peptides of protein X2 / Binding of serum 37 to linear peptides of protein X2 / Binding of serum 37 to looped/cyclic peptides of protein X2 of SARS-CoV Urbani / Binding of serum 6 to linear peptides of protein M of SARS-CoV Urbani / Binding of serum 37 to linear peptides of protein M of SARS-CoV Urbani / Binding of serum 6 to looped/cyclic peptides of protein M of SARS-CoV Urbani / Binding of serum 37 to looped/cyclic peptides of protein M of SARS-CoV Urbani / Binding of serum 6 to linear peptides of protein X3 of SARS-CoV Urbani / Binding of serum 37 to linear peptides of protein X3 of SARS-CoV Urbani / Binding of serum 37 to looped/cyclic peptides of protein X3 of SARS-CoV Urbani / Binding of serum 6 to linear peptides of protein X4 of SARS-CoV Urbani / Binding of serum 37 to linear peptides of protein X4 of SARS-CoV Urbani / Binding of serum 37 to looped/cyclic peptides of protein X4 of SARS-CoV Urbani / Binding of serum 6 to linear peptides of protein X5 of SARS-CoV Urbani / Binding of serum 37 to linear peptides of protein X5 of SARS-CoV Urbani / Binding of serum 37 to looped/cyclic peptides of protein X5 of SARS-CoV Urbani / Binding of serum 6 to linear peptides of protein N of SARS-CoV Urbani / Binding of serum 37 to linear peptides of protein N of SARS-CoV Urbani / Binding of serum 6 to linear peptide (PEPSCAN-ELISA) / Binding of serum 1a to looped/cyclic peptides of protein N of SARS-CoV Urbani / Binding of serum 1b to looped/cyclic peptides of protein N of SARS-CoV Urbani / Binding of serum 2 to looped/cyclic peptides of protein N of SARS-CoV Urbani / Binding of serum 6 to looped/cyclic peptides of protein N of SARS-CoV Urbani / Binding of serum 37 to looped/cyclic peptides of protein N of SARS-CoV Urbani / Binding of serum 62 to looped/cyclic peptides of protein N of SARS-CoV Urbani / Binding of serum London to looped/cyclic peptides of protein N of SARS-CoV Urbani / Binding of serum SARS-green to looped/cyclic peptides of protein N of SARS-CoV Urbani: unit not given here

## QFKDNVILLNKHIDA
[1]
  Binding of a rabbit serum to linear peptides of protein N of SARS-CoV Urbani (Rabbit serum linear peptides): 0.1
  Binding of a rabbit serum to looped/cyclic peptides of protein N of SARS-CoV Urbani (Rabbit serum looped peptides): 0.7
[2]
  Control Serum Blood-Bank Looped peptides: 0.9
  Control serum Blood-bank linear peptides: 0.6
  Control serum LUMC linear peptides: 0.6
  Control serum LUMC looped peptides: 0.8
[3]
  Binding of antibody 03-018 to linear peptides of the N protein of SARS-CoV Urbani: 0.1
  Binding of antibody 03-018 to looped/cyclic peptides of the N protein of SARS-CoV Urbani: 0.3

## LDDKDPQFKDNVILL
[1]
  Binding of a rabbit serum to linear peptides of protein N of SARS-CoV Urbani (Rabbit serum linear peptides): 0.1
  Binding of a rabbit serum to looped/cyclic peptides of protein N of SARS-CoV Urbani (Rabbit serum looped peptides): 0.2
[3]
  Binding of antibody 03-018 to linear peptides of the N protein of SARS-CoV Urbani: 0.1
  Binding of antibody 03-018 to looped/cyclic peptides of the N protein of SARS-CoV Urbani: 0.3

## STPGSSRGNSPARMA
[1]
  Recognition of the peptide by the rabbit serum: recognized
[4]
  Binding of serum 1a to linear peptide (PEPSCAN-ELISA): 0.5
  Binding of serum 1a to looped/cyclic peptides of protein N of SARS-CoV Urbani: 0.3
  Binding of serum 1b to linear peptide (PEPSCAN-ELISA): 0.3
  Binding of serum 1b to looped/cyclic peptides of protein N of SARS-CoV Urbani: 0.2
  Binding of serum 2 to linear peptide (PEPSCAN-ELISA): 0.4
  Binding of serum 2 to looped/cyclic peptides of protein N of SARS-CoV Urbani: 0.4
  Binding of serum 6 to linear peptide (PEPSCAN-ELISA): 0.3
  Binding of serum 6 to looped/cyclic peptides of protein N of SARS-CoV Urbani: 0.4
  Binding of serum 37 to linear peptide (PEPSCAN-ELISA): 0.7
  Binding of serum 37 to looped/cyclic peptides of protein N of SARS-CoV Urbani: 0.6
  Binding of serum 62 to linear peptide (PEPSCAN-ELISA): 0.8
  Binding of serum 62 to looped/cyclic peptides of protein N of SARS-CoV Urbani: 0.5
  Binding of serum London to linear peptide (PEPSCAN-ELISA): 0.5
  Binding of serum London to looped/cyclic peptides of protein N of SARS-CoV Urbani: 0.5
  Binding of serum SARS-green to linear peptide (PEPSCAN-ELISA): 0.8
  Binding of serum SARS-green to looped/cyclic peptides of protein N of SARS-CoV Urbani: 0.2
  Binding of serum SARS-yellow to linear peptide (PEPSCAN-ELISA): 0.7
  Binding of serum SARS-yellow to looped/cyclic peptides of protein N of SARS-CoV Urbani: 0.5
[3]
  Binding of antibody 03-018 to linear peptides of the N protein of SARS-CoV Urbani: 0.1
  Binding of antibody 03-018 to looped/cyclic peptides of the N protein of SARS-CoV Urbani: 0.2

## AATVLQLPQGTTLPK
[1]
  Binding of a rabbit serum to linear peptides of protein N of SARS-CoV Urbani (Rabbit serum linear peptides): 0.3
  Binding of a rabbit serum to looped/cyclic peptides of protein N of SARS-CoV Urbani (Rabbit serum looped peptides): 1.2
[3]
  Binding of antibody 03-018 to linear peptides of the N protein of SARS-CoV Urbani: 0.1
  Binding of antibody 03-018 to looped/cyclic peptides of the N protein of SARS-CoV Urbani: 0.2

## KDPQFKDNVILLNKH
[1]
  Binding of a rabbit serum to linear peptides of protein N of SARS-CoV Urbani (Rabbit serum linear peptides): 0.2
  Binding of a rabbit serum to looped/cyclic peptides of protein N of SARS-CoV Urbani (Rabbit serum looped peptides): 0.5
[3]
  Binding of antibody 03-018 to linear peptides of the N protein of SARS-CoV Urbani: 0.1
  Binding of antibody 03-018 to looped/cyclic peptides of the N protein of SARS-CoV Urbani: 0.2

## DPQFKDNVILLNKHI
[1]
  Binding of a rabbit serum to linear peptides of protein N of SARS-CoV Urbani (Rabbit serum linear peptides): 0.2
  Binding of a rabbit serum to looped/cyclic peptides of protein N of SARS-CoV Urbani (Rabbit serum looped peptides): 0.7
[3]
  Binding of antibody 03-018 to linear peptides of the N protein of SARS-CoV Urbani: 0.1
  Binding of antibody 03-018 to looped/cyclic peptides of the N protein of SARS-CoV Urbani: 0.3

## LLACLCKHKKVSTNL
[1]
  Binding of a rabbit serum to linear peptides: 0.4
  Binding of a rabbit serum to looped peptides: 0.4
[2]
  Binding of Control Serum Blood-Bank to Looped peptides: 0.5
  Binding of Control serum Blood-bank to linear peptides: 0.8
  Binding of Control serum LUMC to linear peptides: 0.8
  Binding of Control serum LUMC to looped peptides: 0.7
[4]
  Binding of serum 1a to looped/cyclic peptides of protein X2 of SARS-CoV Urbani: 0.4
  Binding of serum 1b to looped/cyclic peptides of protein X2 of SARS-CoV Urbani: 0.4
  Binding of serum 2 to looped/cyclic peptides of protein X2 of SARS-CoV Urbani: 0.4
  Binding of serum 6 to looped/cyclic peptides of protein X2 of SARS-CoV Urbani: 0.4
  Binding of serum 37 to looped/cyclic peptides of protein X2 of SARS-CoV Urbani: 0.5
  Binding of serum 62 to looped/cyclic peptides of protein X2 of SARS-CoV Urbani: 0.7
  Binding of serum London to looped/cyclic peptides of protein X2 of SARS-CoV Urbani: 0.2
  Binding of serum SARS-green to looped/cyclic peptides of protein X2 of SARS-CoV Urbani: 0.3
  Binding of serum SARS-yellow to looped/cyclic peptides of protein X2 of SARS-CoV Urbani: 0.4
  Recognition of the peptide by sera of SARS-CoV infected individuals, and form (linear, looped/cyclic) in which it is recognized: recognized in linear form
